Series [1] has as its target T1, human TRPV1 (Homo sapiens (Human), UniProt Q8NER1). The series can be described thus: pH-based assay, Protocol 2 (hpH-CHO). It is filed as cell-based. The note with it: read-out: TRPV1 IC50 Potency, Human pH CHO (hpH-CHO). The procedure:
(§1) For Protocol 2, a Chinese Hamster Ovary cell line (CHO) that has been engineered to constitutively express human recombinant TRPV1 was used (TRPV1/CHO cells). The TRPV1/CHO cell line was generated as described below.
TRPV1/CHO cells were seeded in the 96-well clear-bottom black-wall plate (Nunc) at densities of 1-2×10^4 cells/well and grown in 100 μL of culture medium (alpha-MEM supplemented with 10% FBS, 20 mM HEPES, 1 mg/mL geneticin and 1% antibiotic-antimycotic mixed stock solution) for 1-2 days before the experiment.
For the first half of a 96-well plate one agonist solution was used; for the second half the other agonist solution was used. The agonist solutions were obtained by diluting sulfuric acid (1M H2SO4) with measuring buffer. The concentrations for the two agonist solutions were determined as described above in Section 2 of Protocol 2.
The sulfuric acid concentrations between the two agonist solutions differed by 0.5 mM. […] After 1:4 dilution of the agonist solutions, the final sulfuric acid concentration was 3.2 mM and 3.3 mM, respectively. The resulting pH value for the pH assay was 5.0 to 5.1.
Test compounds were dissolved in DMSO to yield 1 mM stock solutions. […] The thereby-obtained solutions were further diluted in measuring buffer (1:100) as 10× stock serial dilutions with a DMSO concentration of 1%. 10 μL of a 10× stock was added into each well of an “antagonist plate” (see step 3.3.(4) below).
Steps (1) and (2) of this Assay were the same as steps 2.2.(1) and 2.2.(2), respectively, of Protocol 2.
(3) The cells were washed twice with 150 μL of measuring buffer (mentioned in step 2.2.(3) of Protocol 2, no probenecid). The wells were subsequently refilled with 70 μL of measuring buffer.
(4) Either 10 μL of measuring buffer or 10 μL of 10× stock serial dilution of test compound (described in step 3.2. above) were applied to each well. Usually, only one test compound was tested per 96-well plate. The number of replicates per 96-well plate for a particular antagonist at a particular concentration was 2×7 since, as described for the “agonist plate,” two different sulfuric acid concentrations were used per 96-well plate and seven lanes (A-C, E-H) per 96-well plate were used (N=2×7).
(6) Fura-2 fluorescent intensity was monitored as described in step 2.2.(5) above. After 16 time points of baseline detection, 20 μL of agonist solution (measuring buffer titrated with H2SO4 to yield a pH in the range of from about 5.0 to about 5.1 when mixed 1:4 with the measuring buffer containing test compound) was added to each well (final volume 100 μL/well).
Steps (7) and (8) were as described in steps 2.2.(6) and 2.2.(7) above, respectively.
(§2) The IC50 data provided in Table 10 are shown as mean±standard error of the mean; the number of trials conducted for each assay is shown in parentheses except for only a single trial where no number of trials is shown in parentheses.

Series [2] deals with T1, human TRPV1. The series can be described thus: Capsaicin-based assay, Protocol 2 (hCAP-CHO). The series is classed as cell-based. The procedure: as §1
One day prior to assay, TRPV1/CHO cells were seeded in 96-well clear-bottom black plates (20,000 cells/well) in growth media. On the day of the experiment, the cells were washed with 0.2 mL 1× Hank's Balanced Salt Solution (Life Technologies) containing 1.6 mM CaCl2 and 20 mM HEPES, pH 7.4 (“wash buffer”). Subsequently, the cells were loaded by incubation in 0.1 mL of wash buffer containing Fluo-4 at 3 μM final concentration. After 1 hour, the cells were washed twice with 0.2 mL wash buffer and resuspended in 0.1 mL wash buffer. The plates were then transferred to a Fluorescence Imaging Plate Reader (Molecular Devices). Fluorescence intensity was monitored for 15 seconds to establish a baseline. Subsequently, test compounds diluted in assay buffer (lx Hank's Balanced Salt Solution containing 1 mM CaCl2 and 20 mM HEPES, pH 7.4) containing 1% DMSO were added to the cell plate and fluorescence was monitored for 2 minutes. […] Human TRPV1 was then activated by the addition of 50 μL capsaicin (100 nM final concentration) and plates incubated for an additional 3 min. Data were collected over the entire time course and analyzed using Excel and the curve-fitting formula GraphPad Prism.
as §2

Series [3] in a line: In vivo assay of body temperature increase. Also on record: species or system rat. The note with it: rats, oral, 1 mg/mL at 10 mL/kg once; greatest ΔTb versus control at 0.5, 1 or 2 hrs after administration; rectal temperature. An excerpt:
Selection of rats (Crl/SD rats, 7 weeks, male) was based on rectal body temperature measured during the morning of the day of dosing as described below. In addition, to minimize spontaneous, stress-induced increases in body temperature, rats were acclimated in advance to both the rectal measurement procedure and to being handled and dosed. All lodging and testing took place in animal care laboratories with constant room temperature and humidity. The rats were free to move and ingest food and water throughout. Each rat was coded with a colored line on the tail, housed in a separate cage, and permitted the normal range of movement. Immediately before each body temperature measurement, a rat was transferred to a measurement cage. To reduce stress which could influence its body temperature, each rat was covered with towels during the measurement. A thermistor probe was then carefully inserted into the rectum of each rat and left in place until the temperature reading on the digital display had stabilized; this value was recorded.
On the day before dosing, rectal body temperature was measured at 9:00, 10:00, 11:00, 12:30, 13:30, 14:30, and 15:30 o'clock to familiarize the rats with the measurement procedure prior to administration of the test or control treatments. The rats were also dosed by oral gavage without vehicle at 12:30 o'clock to acclimate and familiarize them with the handling and dosing procedure.
On the day of dosing, only rats with rectal body temperatures within the range of from 37.0° C. to 37.7° C. were selected for study. Rectal body temperatures were measured at 9:00, 10:00, and 11:00 o'clock. […] Rectal body temperatures of the selected rats were measured again at 12:30 o'clock and any rat with a rectal body temperature of 38.0° C. or greater was also excluded from the study.
Following assignment to either a test or control group, a test compound or a control was administered to the rats. […] Rectal body temperatures were measured at the following time points: 0.5, 1, and 2 hrs after administration. […]

Series [4] deals with T1, human TRPV1. The series can be described thus: Human TRPV1 heat-based assay (hHeat-CHO). The series is classed as cell-based. The note with it: hTRPV1/CHO cells, temperature ramp 25° C. to 45° C.; mean ± SEM (number of trials); read-out: TRPV1 IC50 Potency, Human Heat CHO (hHeat-CHO). The procedure:
Human TRPV1 Heat-Based Assay:
CHO cells stably expressing human TRPV1 (hTRPV1) were used. Functional assessment of heat-induced activation of hTRPV1 was carried out in a cell-based Ca^2+ flux assay using ABI7500 Fast Real-Time PCR System as described in Reubish et al., “Functional assessment of temperature-gated ion-channel activity using a real-time PCR machine,” www.BioTechniques.com 47(3):iii-ix (2009), which is hereby incorporated by reference. Briefly, hTRPV1/CHO cells were cultured in growth media in a tissue culture dish at 37° C. in a CO2 incubator. On the day of the assay, culture media were removed and the cells were then detached using 0.05% trypsin at 37° C. with 5% CO2, for 90 s. The detached cells were centrifuged (1000 rpm, 4 min) to remove trypsin-containing supernatant and resuspended in assay buffer (115 mM NaCl, 5.4 mM KCl, 0.8 mM MgCl2.6H2O, 1.8 mM CaCl2.2H2O, 13.8 mM D-glucose, and 20 mM HEPES). Then, the cells were loaded with 5 μM Fluo-4, a Ca^2+ reporter dye, in the presence of 2.5 mM probenecid at 37° C. with 5% CO2, for 45 min. Thereafter, the cells were washed twice with measuring buffer (assay buffer supplemented with 0.1% BSA and 3.2 mM CaCl2) then transferred to a Fast 96-well Reaction Plate (0.1 mL) (Part no. 4346907, MICROAMP, Applied Biosystems, Foster City, Calif.). The cell density was 100,000 cells/24 μL/well. A solution of the compound under test (6 μL/well) was added into each well of the 96-well plate. Thus, the reaction volume per well was 30 μL.
The plates were then placed inside an ABI7500 Fast Real-Time PCR instrument (Applied Biosystems) to read fluorescence at different temperatures using 7500 software, version 2.0.2 (Applied Biosystems). The initial temperature was set at 25° C. for 1 min. followed by a temperature ramp to 45° C. in 100 s to deliver heat to cells. [Ca^2+]i response of hTRPV1/CHO cells to heat was determined as: [fluorescence read at 45° C.−fluorescence read at 25° C.].
Compound concentration response curves and IC50 values were analyzed using GraphPad Prism 4 software (GraphPad Software, La Jolla, Calif.).
as §2

Where [5] appears, read: prepared and evaluated according to the methods described in WO2005/030766.
[6] abbreviates: TRPV1/CHO cells, pH 5.0-5.1, mean ± SEM (number of trials).
Where [7] appears, read: TRPV1/CHO cells, 100 nM capsaicin, mean ± SEM (number of trials), read-out: TRPV1 IC50 Potency, Human Capsaicin CHO (hCAP-CHO).

T1 sequence (Q8NER1 whole entry, looked up): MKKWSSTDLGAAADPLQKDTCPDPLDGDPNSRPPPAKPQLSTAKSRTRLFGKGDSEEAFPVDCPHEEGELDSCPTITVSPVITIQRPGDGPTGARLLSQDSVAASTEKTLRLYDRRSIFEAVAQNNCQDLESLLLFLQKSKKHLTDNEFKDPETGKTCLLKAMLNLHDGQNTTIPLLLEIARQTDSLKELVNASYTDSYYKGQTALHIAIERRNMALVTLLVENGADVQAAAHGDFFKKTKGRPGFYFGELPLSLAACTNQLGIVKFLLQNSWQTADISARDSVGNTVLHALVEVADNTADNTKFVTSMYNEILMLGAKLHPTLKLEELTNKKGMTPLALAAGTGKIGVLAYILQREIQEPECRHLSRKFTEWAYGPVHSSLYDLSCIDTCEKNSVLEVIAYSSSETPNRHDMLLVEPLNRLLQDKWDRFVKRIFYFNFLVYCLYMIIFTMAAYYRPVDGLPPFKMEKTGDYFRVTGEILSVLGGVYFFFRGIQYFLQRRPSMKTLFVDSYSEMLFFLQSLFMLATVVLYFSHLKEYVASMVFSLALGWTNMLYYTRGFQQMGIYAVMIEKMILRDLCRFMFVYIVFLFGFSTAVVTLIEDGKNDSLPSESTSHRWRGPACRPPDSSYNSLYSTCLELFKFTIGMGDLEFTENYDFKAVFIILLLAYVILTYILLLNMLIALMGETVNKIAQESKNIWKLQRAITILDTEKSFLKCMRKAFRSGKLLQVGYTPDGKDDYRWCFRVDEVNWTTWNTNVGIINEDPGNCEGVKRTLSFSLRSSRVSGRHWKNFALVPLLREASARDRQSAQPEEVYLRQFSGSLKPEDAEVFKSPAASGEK

In the case of `Cc1cccnc1-c1ccc(C(=O)Nc2nc3ccc(F)cc3s2)cc1` [Compound B, reference compound], the IC50 in series [1] (setting [5]) was greater than 25000 nM; in series [2] it was 1140 ± 270 nM.

With `C[C@H](O)[C@@H](O)c1cnc(N2CCN(C(=O)Nc3nc4ccc(F)cc4s3)[C@@H](C)C2)c(F)c1` [BB], the “Body Temperature Increase ΔTb” value in series [3] was 0.5 °C.

For `O=C(Nc1nc2ccc(Cl)cc2s1)c1ccc(-c2ncc(C[C@@H](O)CO)cc2F)cc1` [Compound G156a, (R)—N-(6-chlorobenzo[d]thiazol-2-yl)-4-[5-(2,3-dihydroxypropyl)-3-fluoropyridin-2-yl]benzamide], the IC50 was 18.8 ± 1.8 nM in series [1] (setting [6]), greater than 10000 nM in series [4] and 28.7 ± 6.8 nM in series [2] (setting [7]).

With `C[C@H](O)[C@@H](O)c1cnc(N2CCN(C(=O)Nc3nc4ccc(F)cc4s3)[C@H](C)C2)c(Cl)c1` [BA], in series [3], the “Body Temperature Increase ΔTb” value stood at 0.9 °C.

Consider `Cc1ccc2nc(NC(=O)c3ccc(-c4ncc(C[C@@H](O)CO)cc4F)cc3)sc2c1` [Compound G159a, (R)-4-[5-(2,3-dihydroxypropyl)-3-fluoropyridin-2-yl]-N-(6-methylbenzo[d]thiazol-2-yl)benzamide], for which the values for the IC50 in series [1] (setting [6]), in series [4] and in series [2] (setting [7]) were 13.7 ± 0.2 nM, 879 ± 13 nM and 29.6 ± 7.9 nM, respectively.

For `O=C(Nc1nc2ccc(F)cc2s1)c1ccc(-c2ncc(C[C@@H](O)CO)cc2F)cc1` [Compound G158a, (R)-4-[5-(2,3-dihydroxypropyl)-3-fluoropyridin-2-yl]-N-(6-fluorobenzo[d]thiazol-2-yl)benzamide], the figures for the IC50 in series [1] (setting [6]), in series [4] and in series [2] (setting [7]) were 23.1 ± 3.1 nM, 598 ± 296 nM and 77 ± 29 nM, respectively.

Consider `O=C(Nc1nc2ccccc2s1)c1ccc(-c2ncc(C[C@@H](O)CO)cc2F)cc1` [Compound G155a, (R)—N-(benzo[d]thiazol-2-yl)-4-[5-(2,3-dihydroxypropyl)-3-fluoropyridin-2-yl]benzamide], for which the IC50 in series [1] (setting [6]) was 44.3 ± 6.2 nM; in series [4] it was 307 ± 10 nM; in series [2] (setting [7]), 31.9 ± 7.6 nM.

Regarding `Cc1cc2nc(NC(=O)c3ccc(-c4ncc(C[C@@H](O)CO)cc4F)cc3)sc2cc1C` [Compound G215a, (R)-4-[5-(2,3-dihydroxypropyl)-3-fluoropyridin-2-yl]-N-(5,6-dimethylbenzo[d]thiazol-2-yl)benzamide], the figures for the IC50 in series [1] (setting [6]) and in series [2] (setting [7]) were 105 ± 14 nM and 219 ± 58 nM, respectively.

For `O=C(Nc1nc2ccccc2s1)c1ccc(-c2ncc(C[C@H](O)CO)cc2F)cc1` [Compound G155b, (S)—N-(benzo[d]thiazol-2-yl)-4-[5-(2,3-dihydroxypropyl)-3-fluoropyridin-2-yl]benzamide], the IC50 in series [1] (setting [6]) was 45 ± 3.3 nM; in series [4] it was 580 nM; in series [2] (setting [7]) it was 116 ± 9.6 nM.

On to `C[C@H](O)[C@@H](O)c1cnc(N2CCN(C(=O)Nc3nc4ccc(F)cc4s3)[C@H](C)C2)c(F)c1` [BC], for which the “Body Temperature Increase ΔTb” value in series [3] worked out at 0.7 °C.

As for `Cc1cccnc1-c1ccc(C(=O)Nc2nc3ccc(Cl)cc3s2)cc1` [A, reference compound], the IC50 in series [1] (setting [5]) and in series [2] was greater than 25000 nM each time.

As a reminder, the IC50 is the concentration that gives 50% inhibition.

Values taken from patent publication US9394293B2, “TRPV1 antagonists including dihydroxy substituent and uses thereof” (Purdue Pharma L.P., priority 2011, dated 2016).
